Tests used:
[1] = Inhibition of SARS-CoV-2 RdRp transfected in HEK293T cells incubated for 24 hrs by […]
[2] = Inhibition of SARS-CoV-2 RdRp transfected in human A549 cells incubated for 24 hrs by […]

Compound	EC50 [1] [nM]	EC50 [2] [nM]
Cc1cccc(C(=O)CSc2c[nH]c3ccccc23)c1	2530	–
O=C(CSc1c[nH]c2ccccc12)c1ccc(Cl)c(Cl)c1	2750	–
CCOc1cccc(CNC(=O)CSc2cn(C(=O)OC(C)(C)C)c3ccccc23)c1	1410	1180
